Laboratory results: patent US20070287689A1, “Therapeutic And/Or Preventive Agents For Chronic Skin Diseases” (KYOWA HAKKO KOGYO CO., LTD., priority 2004, published 2007)
Marks after values point to notes of the source that are not given here.

What was measured:
[1] = test system: delayed-type allergic reaction in the skin; conditions: animal model; Non-patent Document 1; cited from earlier work
[2] = test system: chronic dermatitis models; conditions: Non-patent Document 2; cited from earlier work
[3] = test system: oxazolone-induced ear swelling; experiment: Inhibitory effects on oxazolone-induced ear swelling in mice (Test Example 2); format: in vivo; conditions: dose 1.2 μg/site, 0.03 mg/mL in acetone applied to inner and outer side of the ear 3 hours before and 2 hours after inducing the reaction, ear thickness 24 hours after induction, BALB/c mice
Method: Six-week-old BALB/c mice (male, Charles River Japan, Inc.) were purchased. […] The mice were placed in plastic cages (6 mice per cage) in a breeding room which was kept at a room temperature (19 to 25° C.) and a humidity of 30 to 70% and was illuminated for 12 hours a day (from 7:00 a.m. to 7:00 p.m.). The mice were allowed to freely intake commercially available pellets and water.
As an antigen solution, Oxazolone (Sigma-Aldrich) was dissolved in acetone (Kanto Kagaku) to prepare 0.5 w/v % of oxazolone-acetone solution. BALB/c mice were each applied with 100 μL of the antigen solution to the shaved abdomen for sensitization. Mice were shaved on abdomen on the previous day of the sensitization. […] Ear thickness was measured with a dial thickness gauge (Ozaki Seisakusho) just before and 24 hours after inducing the reaction, and the difference in the thickness was used as an indication of ear swelling. The inhibition ratio (%) against ear swelling was calculated using the following: Inhibition ratio (%)=[{(value in positive control group)−(value in test compound administration group)}/{(value in positive control group)−(value in negative control group)}]×100 Test compound administration group: Compound (I) administration group, prednisolone administration group or combined administration group

| Structure (SMILES) | Effect on delayed-type allergic reaction in the skin [1] | Therapeutic effects on chronic dermatitis models [2] | Inhibition Ratio (ear swelling) [3] | Inhibition Ratio (ear swelling) ([3]; listed as Predonisolone) |
| --- | --- | --- | --- | --- |
| COc1ccc([C@]2(C#N)CC[C@@H](C(=O)O)CC2)cc1OC1CCCC1 [SB207499] | inhibit a delayed-type allergic reaction in the skin | exhibit therapeutic effects | – | – |
| C[C@]12C=CC(=O)C=C1CC[C@@H]1[C@@H]2[C@@H](O)C[C@@]2(C)[C@H]1CC[C@]2(O)C(=O)CO [prednisolone] | – | – | 18% | 18%*** |
